# Test results reported in PubChem BioAssay (NCI).
# Several values for one entry are separate records, joined by “and”; a condition that tells them apart may be missing. Identical values can stand only once.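 Each compound was tested at five concentrations against cells in 96-well plates for 48 hours. Abbreviation: GI50, concentration required for 50% inhibition of growth. Definition used: TGI = concentration required for complete inhibition of growth.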
# Columns and labels:
# Test in all cases: NCI tumour cell line growth inhibition, 48 h
# HCT-116 colon = system: HCT-116 colon
# HCT-15 colon = system: HCT-15 colon
# K-562 leukemia = system: K-562 leukemia
# MOLT-4 leukemia = system: MOLT-4 leukemia
# NCI-H23 lung = system: NCI-H23 lung
# OVCAR-4 ovarian = system: OVCAR-4 ovarian
# SF-268 CNS = system: SF-268 CNS
# SK-MEL-28 melanoma = system: SK-MEL-28 melanoma
# SR leukemia = system: SR leukemia
# BT-549 breast = system: BT-549 breast
SMILES,GI50 (HCT-116 colon),TGI (HCT-116 colon),GI50 (HCT-15 colon),TGI (HCT-15 colon),TGI (K-562 leukemia),GI50 (MOLT-4 leukemia),TGI (MOLT-4 leukemia),GI50 (NCI-H23 lung),TGI (NCI-H23 lung),GI50 (OVCAR-4 ovarian),TGI (OVCAR-4 ovarian),GI50 (SF-268 CNS),TGI (SF-268 CNS),GI50 (SK-MEL-28 melanoma),TGI (SK-MEL-28 melanoma),GI50 (SR leukemia),TGI (SR leukemia),GI50 (BT-549 breast),TGI (BT-549 breast),GI50 (K-562 leukemia)
CC(=O)OCC1OC(OC2CC3C(C)(C)C(O)CC[C@]3(C)C3CCC45CC4(CC[C@H]5C(C)CC(O)C4OC4(C)C)[C@]23C)C(O)C(O)C1O (stereo partly drawn),3.57 µM,16.3 µM and 21.8 µM,14.2 µM,15.3 µM and 27.6 µM,4.12 µM and 16.2 µM,3.01 µM,2.34 µM and 7.26 µM,12.2 µM,16.5 µM and 27.5 µM,13.9 µM,15.8 µM and 30.7 µM,11 µM,13.4 µM and 28.4 µM,8.37 µM,14.3 µM and 21.3 µM,1.93 µM,3.53 µM and 4.13 µM,–,–,–
O=C(C(=O)N1CC2C=CC1CC2)c1c[nH]c2ccccc12 (stereo not drawn),–,> 100 µM,–,> 100 µM,> 100 µM,–,> 100 µM,–,–,–,> 100 µM,–,> 100 µM,–,–,–,> 100 µM,–,–,–
Cc1ccc(-c2cc(C3=CC(=O)C=CC3=O)n(-c3ccc(S(N)(=O)=O)cc3)n2)cc1,17.3 µM,33 µM,58.2 µM,> 100 µM,> 100 µM,9.06 µM,> 100 µM,32.9 µM,> 100 µM,–,–,55.3 µM,> 100 µM,> 100 µM,> 100 µM,–,–,64.1 µM,> 100 µM,34.4 µM
C1OC1CO[C@@H]1CO[C@H]2[C@@H]1OC[C@H]2OCC1CO1 (stereo partly drawn),–,> 100 µM,–,> 100 µM,> 100 µM,–,> 100 µM,–,> 100 µM,–,> 100 µM,–,> 100 µM,–,> 100 µM,–,> 100 µM,–,–,–
Cc1ccc(SC2=CC(=O)c3nc4ccccc4c4ccnc2c34)cc1,22.7 µM,> 56.8 µM,18.4 µM,40.6 µM,> 100 µM,42.8 µM,> 100 µM,24.7 µM,> 73.9 µM,17.4 µM,32.6 µM,29.7 µM,> 70.7 µM,> 100 µM,> 100 µM,–,–,> 62.9 µM,> 100 µM,35.5 µM
COC(=O)C1(F)C(=O)NC(=O)NC1O (stereo not drawn),–,> 100 µM,–,> 100 µM,> 100 µM,–,> 100 µM,–,> 100 µM,–,> 100 µM,–,> 100 µM,–,> 100 µM,–,> 100 µM,–,–,–
O=C1c2c(n(Cc3ccccc3)c(=O)n2Cc2ccccc2)C(=O)N1Cc1ccccc1,–,> 100 µM,–,> 100 µM,> 100 µM,–,> 100 µM,–,> 100 µM,–,> 100 µM,–,> 100 µM,–,> 100 µM,–,–,–,–,–
CCN(CCCl)CCCNc1c2ccccc2nc2ccc(OC)cc12,–,1.16 µM,–,1.86 µM,–,15.7 µM,–,382 µM,–,360 µM,–,254 µM,–,665 µM,–,–,1.04 µM,–,–,116 µM
c1ccc2c(c1)[nH]c1cnc3c4cccnc4[nH]c3c12,–,30.8 µM,–,31.9 µM,46.4 µM,–,49.3 µM,–,62.1 µM,–,32.6 µM,–,36.1 µM,–,38.4 µM,–,48.7 µM,–,–,–
COc1ccc(-c2ccc(-c3ccc(-c4ccc(C(=N)N)cc4)s3)s2)cc1OC,–,–,–,–,5.47 µM,2.51 µM,6.6 µM,2.43 µM,6.26 µM,–,–,19.5 µM,50.9 µM,18.1 µM,40.6 µM,1.74 µM,6 µM,17.3 µM,46.8 µM,1.9 µM
O=Nc1ccc2ccccc2c1O,2.6 µM,7.36 µM,10.2 µM,30.8 µM,–,–,–,3.18 µM,16.1 µM,1.89 µM,5.32 µM,3.97 µM,13.3 µM,9.08 µM,22.2 µM,–,–,17.7 µM,31.6 µM,–
CC#CC1/C(=C\C(=O)OC)CCCC1O (stereo not drawn),–,> 100 µM,–,> 100 µM,> 100 µM,–,> 100 µM,–,> 100 µM,–,> 100 µM,–,> 100 µM,–,> 100 µM,–,> 100 µM,–,–,–
CCCCOC(=O)NC(=O)c1cn(CCSCCOC(=O)NCCCCCCNC(=O)OCCSCCn2cc(C(=O)NC(=O)OCCCC)c(=O)[nH]c2=O)c(=O)[nH]c1=O,–,> 100 µM,–,> 100 µM,> 100 µM,–,–,–,94.5 µM,–,> 100 µM,–,> 100 µM,–,> 100 µM,–,> 100 µM,–,–,–
C/C(=N\N=C(/[Se])N1CC2CCC(CC2)C1)c1ccccn1,–,0.878 µM,–,2.06 µM,0.575 µM,–,1.16 µM,–,1.57 µM,–,2.56 µM,–,5.43 µM,–,1.03 µM,–,–,–,1.63 µM,–
CCOC(=O)C1SC(=Nc2ccc(Cl)c(Cl)c2)N=C1C (stereo not drawn),–,–,–,> 100 µM,32.5 µM,–,> 100 µM,–,> 100 µM,–,62 µM,–,> 100 µM,–,> 100 µM,–,–,–,–,–
CC(=O)CCCCO,–,> 100 µM,–,> 100 µM,> 100 µM,–,> 100 µM,–,> 100 µM,–,> 100 µM,–,> 100 µM,–,> 100 µM,–,–,–,–,–
COc1cc(-c2nc3sc4c(c3c(=O)[nH]2)CCCCCC4)cc(OC)c1OC,1.21 µM,5.72 µM,0.649 µM,> 33.2 µM,> 33.2 µM,1.86 µM,> 33.2 µM,1.43 µM,> 33.2 µM,–,–,2.97 µM,> 33.2 µM,1.95 µM,> 33.2 µM,0.776 µM,> 33.2 µM,1.26 µM,19 µM,0.263 µM
COc1ccc2nc3cc(Cl)ccc3c(NCCCNCCC(C)O)c2c1 (stereo not drawn),0.0569 µM,1.54 µM,0.735 µM,3.6 µM,–,0.119 µM,1.58 µM,0.36 µM,2.1 µM,0.282 µM,1.04 µM,0.523 µM,2.52 µM,–,–,0.156 µM,1.74 µM,1.73 µM,4.13 µM,–
CCOC(=O)C(=Cc1ccc(C(=O)OC)cc1)C(=O)OCC,–,12.5 µM,–,6.76 µM,> 100 µM,–,7.74 µM,–,3.36 µM,–,14 µM,–,6.51 µM,–,3.34 µM,–,–,–,–,–
